Experiment [1] has as its system peptide-pulsed autologous EBV-transformed B cells (B-LCL). It is filed as cell-based, human.
For the next experiment, the system named is PBMCs. The conditions noted are these: cited from earlier work.
Experiment [2] deals with HIV envelope protein gp160. The conditions noted are these: cited from earlier work; for T-cell proliferative response to immunizing peptide and HIV Env protein gp160 / antibodies recognizing recombinant gp160: immunized mice; for T-cell proliferation responses: two F1 hybrid mouse strains (B6C3 F1 and A.SW×Balb/c F1).
Experiment [3] deals with PBMCs from control and HIV-1 infected chimpanzees. The class given is cell-based, chimpanzee.
The subject of experiment [4] is anti-peptide antibodies in serum. It is filed as binding, human. More on the design: key to Anti-peptide antibody response: +, Positive (titer above control); −, Negative (titer below control).
Experiment [5] has the same test system. It is filed as binding, chimpanzee. More on the design: key: +, Positive (Titer > 1:100); −, Negative (Titer < 1:100).
The test system of experiment [6] is PBMCs from normal and HIV-positive individuals. The class given is cell-based, human. The conditions noted are these: for number of HIV+ individuals with positive proliferative responses: 17 HIV+ individuals tested.

Results on six sequences are retold here after US7306804B2 (priority 1998, dated 2007).

“Also recorded” adds a separate entry of the source. Like-named read-outs stand apart in the source and are kept apart here.

As for FLGFLGAAGSTMGAASLTLTVQARQ [Peptide 63], in experiment [1], the “% Specific lysis at various E:T ratios 12.5:1” value was determined as 0%, the “% Specific lysis at various E:T ratios 25:1” value was determined as 7.9%, the “% Specific lysis at various E:T ratios 50:1” value stood at 8.8% and the “% Specific lysis at various E:T ratios 100:1” value is on record as 17.6%. Moreover, in experiment [1], the “CTL activity against peptide-pulsed autologous B-LCLs” value is “significant CTL activity” and the “specific lysis of peptide-pulsed target cells” value was “also observed”. The “proliferative response of PBMCs” value in the experiment on PBMCs (monkey, in vivo) is “good response”. In addition, in experiment [2], the “T-cell proliferative response to immunizing peptide and HIV Env protein gp160” value was “induced a T-cell response against both the immunizing peptide and the HIV Env protein; also recorded: induced proliferative responses to both the immunizing peptide”; the “antibodies recognizing recombinant gp160” value was “did not produce antibodies that could recognize recombinant gp160”; the T-cell proliferation responses result is “relatively good T-cell proliferation responses”.
GTGPCTNVSTVQC [Peptide 116]: the “proliferative response of PBMCs” value in the experiment on PBMCs (monkey, in vivo) was “weak responses”. For the same sequence, the T-cell proliferation responses result in experiment [2] is recorded as “relatively good T-cell proliferation responses”.
For the sequence LWDQSLKPCVKLT [Peptide 111], the “proliferative response of PBMCs” value in the experiment with PBMCs (three monkeys immunized with peptide cocktail) is recorded as “good response”. Moreover, the T-cell proliferation responses entry in experiment [2] is on record as “relatively good T-cell proliferation responses”.
Regarding SVITQACSKVSFE [Peptide 113], the T-cell proliferative response entry in experiment [3] (chimpanzee 40, control normal) was “− (−, Negative (SI < 2.0))”; in experiment [3] (chimpanzee 62, HIV-infected), “+ (+, Positive (Stimulation Index [SI] > 2.0))”; in experiment [3] (chimpanzee 69, HIV-infected), “+ (+, Positive (Stimulation Index [SI] > 2.0))”; in experiment [3] (chimpanzee 73, control normal), “− (−, Negative (SI < 2.0))”; in experiment [3] (chimpanzee 80, HIV-infected), “+ (+, Positive (Stimulation Index [SI] > 2.0))”; in experiment [3] (chimpanzee 99, HIV-infected) it was “− (−, Negative (SI < 2.0))”. For the same sequence, the T-cell proliferative response entry in experiment [3] (chimpanzee 100, HIV-infected) was “+ (+, Positive (Stimulation Index [SI] > 2.0))”; in experiment [3] (chimpanzee 139, HIV-infected), “− (−, Negative (SI < 2.0))”; in experiment [3] (chimpanzee 175, HIV-infected) it was “+ (+, Positive (Stimulation Index [SI] > 2.0))”; in experiment [3] (chimpanzee 247, HIV-infected) it was “− (−, Negative (SI < 2.0))”; in experiment [3] (chimpanzee 310, HIV-infected), “− (−, Negative (SI < 2.0))”; in experiment [6] (HIV-positive patient MSf), “− (−, Negative (SI < 2.0))”. Further, the T-cell proliferative response result in experiment [6] (HIV-positive patient MSm) is “− (−, Negative (SI < 2.0))”; in experiment [6] (HIV-positive patient eight), “− (−, Negative (SI < 2.0))”; in experiment [6] (HIV-positive patient eleven) it was “− (−, Negative (SI < 2.0))”; in experiment [6] (HIV-positive patient fifteen) it was “+ (+, Positive (Stimulation Index [SI] > 2.0))”; in experiment [6] (HIV-positive patient five), “− (−, Negative (SI < 2.0))”; in experiment [6] (HIV-positive patient four) it was “− (−, Negative (SI < 2.0))”. The T-cell proliferative response result in experiment [6] (HIV-positive patient fourteen) was “+ (+, Positive (Stimulation Index [SI] > 2.0))”; in experiment [6] (HIV-positive patient nine) it was “− (−, Negative (SI < 2.0))”; in experiment [6] (HIV-positive patient one), “− (−, Negative (SI < 2.0))”; in experiment [6] (HIV-positive patient seven), “+ (+, Positive (Stimulation Index [SI] > 2.0))”; in experiment [6] (HIV-positive patient six), “+ (+, Positive (Stimulation Index [SI] > 2.0))”; in experiment [6] (HIV-positive patient ten), “− (−, Negative (SI < 2.0))”. Moreover, the T-cell proliferative response entry was “+ (+, Positive (Stimulation Index [SI] > 2.0))” in experiment [6] (HIV-positive patient thirteen); “− (−, Negative (SI < 2.0))” in experiment [6] (HIV-positive patient three); “− (−, Negative (SI < 2.0))” in experiment [6] (HIV-positive patient twelve); “− (−, Negative (SI < 2.0))” in experiment [6] (HIV-positive patient two); “− (−, Negative (SI < 2.0))” in experiment [6] (Normal-1 (HIV-seronegative)); “− (−, Negative (SI < 2.0))” in experiment [6] (Normal-2 (HIV-seronegative)). The “number of HIV-infected chimpanzees with positive proliferative responses (SI>2.0)” value in experiment [3] (nine HIV-infected chimpanzees tested) was “five”. For the same sequence, the “% Specific lysis at various E:T ratios 12.5:1” value in experiment [1] turned out to be 0%. In addition, in experiment [1], the “% Specific lysis at various E:T ratios 25:1” value is reported as 0%. The “% Specific lysis at various E:T ratios 50:1” value in experiment [1] came to 0%. For the same sequence, the “% Specific lysis at various E:T ratios 100:1” value in experiment [1] is listed as 0%. Also, in experiment [1], the “CTL activity against peptide-pulsed autologous B-LCLs” value is given as “did not serve as a CTL epitope”. Also, in the experiment with PBMCs (monkey, in vivo), the “proliferative response of PBMCs” value is given as “weak responses”. Besides, the Anti-peptide antibody response entry in experiment [4] is “+ and −”; in experiment [5], “−”. Also, the “number of HIV+ individuals with positive antibody titers (<1:1280)” value in experiment [4] was “one”. The “T-cell proliferative response to immunizing peptide and HIV Env protein gp160” value in experiment [2] was “induced a T-cell response against both the immunizing peptide and the HIV Env protein; also recorded: induced proliferative responses to both the immunizing peptide”. Besides, the “antibodies recognizing recombinant gp160” value in experiment [2] is “did not produce antibodies that could recognize recombinant gp160”. For the same sequence, the T-cell proliferation responses entry in experiment [2] is “relatively good T-cell proliferation responses”. The “number of HIV+ individuals with positive proliferative responses” value in experiment [6] was “five”.
As for YLRDQQLLGIWG [Peptide 120], the T-cell proliferative response entry in experiment [3] (chimpanzee 40, control normal) was “− (−, Negative (SI < 2.0))”; in experiment [3] (chimpanzee 62, HIV-infected), “+ (+, Positive (Stimulation Index [SI] > 2.0))”; in experiment [3] (chimpanzee 69, HIV-infected), “+ (+, Positive (Stimulation Index [SI] > 2.0))”; in experiment [3] (chimpanzee 73, control normal), “− (−, Negative (SI < 2.0))”; in experiment [3] (chimpanzee 80, HIV-infected), “+ (+, Positive (Stimulation Index [SI] > 2.0))”; in experiment [3] (chimpanzee 99, HIV-infected), “− (−, Negative (SI < 2.0))”. The T-cell proliferative response entry in experiment [3] (chimpanzee 100, HIV-infected) is “+ (+, Positive (Stimulation Index [SI] > 2.0))”; in experiment [3] (chimpanzee 139, HIV-infected), “− (−, Negative (SI < 2.0))”; in experiment [3] (chimpanzee 175, HIV-infected) it was “− (−, Negative (SI < 2.0))”; in experiment [3] (chimpanzee 247, HIV-infected) it was “− (−, Negative (SI < 2.0))”; in experiment [3] (chimpanzee 310, HIV-infected) it was “− (−, Negative (SI < 2.0))”; in experiment [6] (HIV-positive patient MSf), “− (−, Negative (SI < 2.0))”. The T-cell proliferative response result in experiment [6] (HIV-positive patient MSm) is “− (−, Negative (SI < 2.0))”; in experiment [6] (HIV-positive patient eight), “− (−, Negative (SI < 2.0))”; in experiment [6] (HIV-positive patient eleven) it was “+ (+, Positive (Stimulation Index [SI] > 2.0))”; in experiment [6] (HIV-positive patient fifteen) it was “+ (+, Positive (Stimulation Index [SI] > 2.0))”; in experiment [6] (HIV-positive patient five), “− (−, Negative (SI < 2.0))”; in experiment [6] (HIV-positive patient four), “− (−, Negative (SI < 2.0))”. Moreover, the T-cell proliferative response result was “− (−, Negative (SI < 2.0))” in experiment [6] (HIV-positive patient fourteen); “+ (+, Positive (Stimulation Index [SI] > 2.0))” in experiment [6] (HIV-positive patient nine); “− (−, Negative (SI < 2.0))” in experiment [6] (HIV-positive patient one); “+ (+, Positive (Stimulation Index [SI] > 2.0))” in experiment [6] (HIV-positive patient seven); “+ (+, Positive (Stimulation Index [SI] > 2.0))” in experiment [6] (HIV-positive patient six); “− (−, Negative (SI < 2.0))” in experiment [6] (HIV-positive patient ten). Also, the T-cell proliferative response result in experiment [6] (HIV-positive patient thirteen) is listed as “− (−, Negative (SI < 2.0))”; in experiment [6] (HIV-positive patient three), “− (−, Negative (SI < 2.0))”; in experiment [6] (HIV-positive patient twelve), “− (−, Negative (SI < 2.0))”; in experiment [6] (HIV-positive patient two), “− (−, Negative (SI < 2.0))”; in experiment [6] (Normal-1 (HIV-seronegative)) it was “− (−, Negative (SI < 2.0))”; in experiment [6] (Normal-2 (HIV-seronegative)), “− (−, Negative (SI < 2.0))”. Further, the Anti-peptide antibody response result was “− and +” in experiment [4]; “−” in experiment [5]. In addition, the “number of HIV+ individuals with positive antibody titers (<1:1280)” value in experiment [4] is “two”. For the same sequence, the “number of HIV+ individuals with positive proliferative responses” value in experiment [6] is “five”.
On to YLRDQQLLGIWGC [Peptide 61], for which, in experiment [1], the “% Specific lysis at various E:T ratios 12.5:1” value is reported as 4.0%, the “% Specific lysis at various E:T ratios 25:1” value worked out at 4.0%, the “% Specific lysis at various E:T ratios 50:1” value is 14.5% and the “% Specific lysis at various E:T ratios 100:1” value turned out to be 15.0%. For the same sequence, in experiment [1], the “CTL activity against peptide-pulsed autologous B-LCLs” value was “significant CTL activity” and the “specific lysis of peptide-pulsed target cells” value is recorded as “also observed”. In the experiment on PBMCs (monkey, in vivo), the “proliferative response of PBMCs” value was “PMBCs from two of the monkeys showed good proliferative responses”. Further, in experiment [2], the “T-cell proliferative response to immunizing peptide and HIV Env protein gp160” value is “induced a T-cell response against both the immunizing peptide and the HIV Env protein”; the “antibodies recognizing recombinant gp160” value was “did not produce antibodies that could recognize recombinant gp160”; the T-cell proliferation responses entry is “relatively good T-cell proliferation responses”.
